# Reference: patent US12521393B2, “Cytotoxicity targeting chimeras for CCR2-expressing cells” (GLAXOSMITHKLINE INTELLECTUAL PROPERTY DEVELOPMENT LIMITED, priority 2021, dated 2026)
# Where a name gives a salt, the structure may show the parent alone.
# Key:
# [1] = test system: endogenous target monocytes in human PBMC; experiment: PBMC ex vivo monocyte depletion flow cytometry assay (Example 200); format: cell-based; conditions: with anti-cotinine antibody (SEQ ID NO: 11/12), 18-24 hours, EC50 in molar, read-out: Ex Vivo Depletion Assay pEC50 (converted)
# Procedure, shortened: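 Monocyte depletion is reported as pEC50, averaged or given individually across runs, and read by flow cytometry staining CD45, CD14 and CD4 with a viability dye. Compounds, diluted four-fold over 11 points from 1 mM DMSO stocks, were combined with 30 μg/mL Fc-enhanced anti-cotinine antibody and human PBMC, then incubated 18-24 h at 37° C.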
# [2] = test system: CCR2 expressing cells (CD11b+Ly6c+Hi) in peripheral blood; experiment: In vivo depletion assay, flow cytometry of peripheral blood (Example 201); parameters: species or system human CCR2 knock-in mice (C57 background); conditions: hCCR2 knock-in mice, IV 0.1 mpk compound + 10 mpk anti-cotinine antibody (SEQ ID NO: 13/14), peripheral blood at 48 hr
# Procedure, shortened: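 Flow cytometry of blood collected at study termination quantified percent depletion of CD11b+Ly6c+Hi cells and CCR2 expression, using surface markers CD45, CD3, CD11b, Ly6C, human CCR2 after Fc block, with 7AAD viability stain. Compound given in saline:DMSO:PBS formulation, optionally combined with anti-cotinine antibody, incubated 30 min before administration.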
# [3] = target: human alpha1 nicotinic acetylcholine (nACh) receptor (Homo sapiens, UniProt P02708); experiment: Nicotinic acetylcholine receptor antagonism assay, IONFlux automated patch clamp (Example 203); format: cell-based; conditions: for IC50: antagonism of ACh-stimulated human alpha1 nAChR current, patch clamp; for Emax at 100 µM: maximum percentage antagonism at maximum concentration tested 100 μM; for Emax at 100 µM / Emax at 10 µM: read-out: Maximum Response; for Emax at 10 µM: maximum percentage antagonism at maximum concentration tested 10 μM
# Sequence of human alpha1 nicotinic acetylcholine (nACh) receptor (P02708 21-457): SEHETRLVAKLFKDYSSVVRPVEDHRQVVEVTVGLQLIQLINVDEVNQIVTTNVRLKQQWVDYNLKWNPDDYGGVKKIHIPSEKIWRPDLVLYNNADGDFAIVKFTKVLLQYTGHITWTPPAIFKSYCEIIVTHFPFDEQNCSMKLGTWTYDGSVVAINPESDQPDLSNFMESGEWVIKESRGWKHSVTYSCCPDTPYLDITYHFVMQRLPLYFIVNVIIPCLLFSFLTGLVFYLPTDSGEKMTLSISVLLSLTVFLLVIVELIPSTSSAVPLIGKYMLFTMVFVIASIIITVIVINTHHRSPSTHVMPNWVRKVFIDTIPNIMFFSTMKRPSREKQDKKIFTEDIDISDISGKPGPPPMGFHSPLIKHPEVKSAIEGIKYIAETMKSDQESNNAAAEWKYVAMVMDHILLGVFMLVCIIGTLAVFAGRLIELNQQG
# Sequence of human alpha1 nicotinic acetylcholine (nACh) receptor (P11230 24-501 partner): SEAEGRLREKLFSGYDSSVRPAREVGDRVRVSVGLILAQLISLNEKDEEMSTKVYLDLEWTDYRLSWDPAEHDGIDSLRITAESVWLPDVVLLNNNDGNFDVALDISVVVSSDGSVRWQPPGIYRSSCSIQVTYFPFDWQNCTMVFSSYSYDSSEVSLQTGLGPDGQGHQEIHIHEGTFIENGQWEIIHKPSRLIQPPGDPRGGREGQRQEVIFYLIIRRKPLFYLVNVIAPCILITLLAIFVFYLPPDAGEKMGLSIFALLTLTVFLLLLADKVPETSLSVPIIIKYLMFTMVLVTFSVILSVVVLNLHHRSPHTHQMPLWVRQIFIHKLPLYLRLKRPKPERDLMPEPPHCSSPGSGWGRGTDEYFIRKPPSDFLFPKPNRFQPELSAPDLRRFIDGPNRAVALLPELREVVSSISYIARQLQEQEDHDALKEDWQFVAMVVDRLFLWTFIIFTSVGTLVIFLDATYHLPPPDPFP
# Sequence of human alpha1 nicotinic acetylcholine (nACh) receptor (Q07001 22-517 partner): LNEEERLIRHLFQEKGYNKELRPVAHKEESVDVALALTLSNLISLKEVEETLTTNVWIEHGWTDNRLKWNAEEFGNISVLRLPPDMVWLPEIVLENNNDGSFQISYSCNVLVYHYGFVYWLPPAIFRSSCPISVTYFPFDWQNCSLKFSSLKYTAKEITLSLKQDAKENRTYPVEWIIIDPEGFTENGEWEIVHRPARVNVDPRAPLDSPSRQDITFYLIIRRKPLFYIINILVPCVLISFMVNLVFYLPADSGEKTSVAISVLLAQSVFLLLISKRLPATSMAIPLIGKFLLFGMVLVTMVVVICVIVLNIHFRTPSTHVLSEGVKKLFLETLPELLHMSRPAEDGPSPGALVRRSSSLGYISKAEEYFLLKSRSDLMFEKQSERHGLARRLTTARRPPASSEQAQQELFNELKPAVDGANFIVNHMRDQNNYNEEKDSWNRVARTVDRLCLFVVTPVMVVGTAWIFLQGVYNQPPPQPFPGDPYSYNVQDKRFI
# Procedure: Cells expressing human alpha1 nicotinic acetylcholine (nACh) receptor (nAChR) were washed and dissociated using Trypsin containing buffer. Cells were then washed and seeded at a density of 3-5 million cells/mL and allowed to grow for 3 days. Then, 60-80 μL of cells were added to plates and incubated with dose response of an ARM compound of Formula (I) with a top concentration of either 10 μM or 100 μM. The receptor was then stimulated via addition of acetylcholine (ACh) and activation of the receptor was monitored via the IONFlux automated patch clamp system. IonFlux Data Analyzer software was utilized to perform leak subtraction and measure (min) peak current amplitude.
# Data processing: (1) Current values recorded for vehicle only applications in individual traps/patterns were subtracted from corresponding current amplitude values for control, test article and control+test article. (2) Control response was calculated as % of the average response of the 3rd out of total 3 ACh (10 mM) applications alone. In rare situations, if the 3rd ACh response was obscured due to technical artifacts, the 2nd and/or 1st ACh (10 mM) application was considered as control. The peak current amplitude generated in the presence of each test article concentration was then used to calculate the % inhibition as compared to control response (10 mM ACh alone). These estimates were further corrected for vehicle response and run down corrected by normalizing with time matched control responses (10 mM ACh alone). The corrected percentages were then fit with a non-linear function in GraphPad Prism 6 (or later versions) to determine the IC50.
# Exclusion criteria: (i) any n's with poor recording quality, (ii) control current amplitude <500 pA or (iii) significant outliers, as determined by the Grubbs test.
# ARMs compounds of Formula (I) of the invention were tested for antagonism of the nAChR in the above assay in […] experimental runs and the results are shown in Table 7 below. Antagonistic activity of the compounds of Formula (I) of the invention is reported as an IC50 value (half maximal inhibitory concentration) and the maximum percentage antagonism observed at the highest concentration of compound of Formula (I) tested, as indicated in Table 7. For compounds tested in more than one experimental run, the IC50 value is reported as an average
IC50 [3],Emax at 10 µM [3],SMILES,EC50 [1],% Depletion of CCR2 expressing cells [2],Emax at 100 µM [3]
4660 nM,67.1%,"CC(C)N(C)[C@@H]1CC[C@H](N2CC[C@H](Nc3ncnc4ccc(C(F)(F)F)cc34)C2=O)[C@H](NC(=O)c2ccc(C3CCN(CCOCCOCCNC(=O)[C@H]4CC(=O)N(C)[C@@H]4c4cccnc4)CC3)cn2)C1 [Example 94, N-((1R,2S,5R)-5-(Isopropyl(methyl)amino)-2-((S)-2-oxo-3-((6-(trifluoromethyl)quinazolin-4-yl)amino)pyrrolidin-1-yl)cyclohexyl)-5-(1-(2-(2-(2-((2S,3S)-1-methyl-5-oxo-2-(pyridin-3-yl)pyrrolidine-3-carboxamido)ethoxy)ethoxy)ethyl)piperidin-4-yl)picolinamide]",2 nM,88.66%,–
≥ 10000 nM,16.8%,"CC(C)N(C)[C@@H]1CC[C@H](N2CC[C@H](Nc3ncnc4ccc(C(F)(F)F)cc34)C2=O)[C@H](NC(=O)c2ccc(N3CCC(C(=O)NCCOCCOCCNC(=O)[C@H]4CC(=O)N(C)[C@@H]4c4cccnc4)CC3)cc2)C1 [Example 130, 1-(4-(((1R,2S,5R)-5-(Isopropyl(methyl)amino)-2-((S)-2-oxo-3-((6-(trifluoromethyl)quinazolin-4-yl)amino)pyrrolidin-1-yl)cyclohexyl)carbamoyl)phenyl)-N-(2-(2-(2-((2S,3S)-1-methyl-5-oxo-2-(pyridin-3-yl)pyrrolidine-3-carboxamido)ethoxy)ethoxy)ethyl)piperidine-4-carboxamide]",0.631 nM,81.81%,–
≥ 10000 nM,13.1%,"CC(C)N(C)[C@@H]1CC[C@H](N2CC[C@H](Nc3ncnc4ccc(C(F)(F)F)cc34)C2=O)[C@H](NC(=O)C2CCN(c3ccc(C(=O)NCCOCCOCCNC(=O)[C@H]4CC(=O)N(C)[C@@H]4c4cccnc4)cc3)CC2)C1 [Example 142, N-((1R,2S,5R)-5-(Isopropyl(methyl)amino)-2-((S)-2-oxo-3-((6-(trifluoromethyl)quinazolin-4-yl)amino)pyrrolidin-1-yl)cyclohexyl)-1-(4-((2-(2-(2-((2S,3S)-1-methyl-5-oxo-2-(pyridin-3-yl)pyrrolidine-3-carboxamido)ethoxy)ethoxy)ethyl)carbamoyl)phenyl)piperidine-4-carboxamide]",0.398 nM,79.27%,–
74300 nM,–,"CC(C)N(C)[C@@H]1CC[C@H](N2CC[C@H](Nc3ncnc4ccc(C(F)(F)F)cc34)C2=O)[C@H](NC(=O)CCOCCOCCO[C@H]2CC[C@H](OCCNC(=O)[C@H]3CC(=O)N(C)[C@@H]3c3cccnc3)CC2)C1 [Example 192, (2S,3S)-N-(2-(((1R,4S)-4-(2-(2-(3-(((1R,2S,5R)-5-(Isopropyl(methyl)amino)-2-((S)-2-oxo-3-((6-(trifluoromethyl)quinazolin-4-yl)amino)pyrrolidin-1-yl)cyclohexyl)amino)-3-oxopropoxy)ethoxy)ethoxy)cyclohexyl)oxy)ethyl)-1-methyl-5-oxo-2-(pyridin-3-yl)pyrrolidine-3-carboxamide]",–,84.8%,53%

# More lines, now with the values behind:
SMILES,IC50 [3],Emax at 10 µM [3],EC50 [1],% Depletion of CCR2 expressing cells [2],Emax at 100 µM [3]
"CC(C)N(C)[C@@H]1CC[C@H](N2CC[C@H](Nc3ncnc4ccc(C(F)(F)F)cc34)C2=O)[C@H](NC(=O)[C@H]2CC[C@@H](NC(=O)CCOCCCNC(=O)CCCNC(=O)[C@H]3CC(=O)N(C)[C@@H]3c3cccnc3)CC2)C1 [Example 17, (2S,3S)-N-(4-((3-(3-(((1S,4s)-4-(((1R,2S,5R)-5-(Isopropyl(methyl)amino)-2-((S)-2-oxo-3-((6-(trifluoromethyl)quinazolin-4-yl)amino)pyrrolidin-1-yl)cyclohexyl)carbamoyl)cyclohexyl)amino)-3-oxopropoxy)propyl)amino)-4-oxobutyl)-1-methyl-5-oxo-2-(pyridin-3-yl)pyrrolidine-3-carboxamide]",≥ 100000 nM,–,0.631 nM,91%,55.1%
"CC(C)N(C)[C@@H]1CC[C@H](N2CC[C@H](Nc3ncnc4ccc(C(F)(F)F)cc34)C2=O)[C@H](NC(=O)[C@H]2C[C@H](NC(=O)CCOCCOCCOCCNC(=O)[C@H]3CC(=O)N(C)[C@@H]3c3cccnc3)C2)C1 [Example 27, (2S,3S)-N-(2-(2-(2-(3-(((1R,3r)-3-(((1R,2S,5R)-5-(Isopropyl(methyl)amino)-2-((S)-2-oxo-3-((6-(trifluoromethyl)quinazolin-4-yl)amino)pyrrolidin-1-yl)cyclohexyl)carbamoyl)cyclobutyl)amino)-3-oxopropoxy)ethoxy)ethoxy)ethyl)-1-methyl-5-oxo-2-(pyridin-3-yl)pyrrolidine-3-carboxamide]",93700 nM,–,10 nM,80%,53.8%
"CC(C)N(C)[C@@H]1CC[C@H](N2CC[C@H](Nc3ncnc4ccc(C(F)(F)F)cc34)C2=O)[C@H](NC(=O)[C@H]2C[C@@H](NC(=O)CCOCCNC(=O)CCOCCNC(=O)[C@H]3CC(=O)N(C)[C@@H]3c3cccnc3)C2)C1 [Example 44, (2S,3S)-N-(2-(3-((2-(3-(((1S,3s)-3-(((1R,2S,5R)-5-(Isopropyl(methyl)amino)-2-((S)-2-oxo-3-((6-(trifluoromethyl)quinazolin-4-yl)amino)pyrrolidin-1-yl)cyclohexyl)carbamoyl)cyclobutyl)amino)-3-oxopropoxy)ethyl)amino)-3-oxopropoxy)ethyl)-1-methyl-5-oxo-2-(pyridin-3-yl)pyrrolidine-3-carboxamide]",≥ 100000 nM,–,0.631 nM,91%,51.5%
"CC(C)N(C)[C@@H]1CC[C@H](N2CC[C@H](Nc3ncnc4ccc(C(F)(F)F)cc34)C2=O)[C@H](NC(=O)[C@H]2CC[C@H](c3ccc(C(=O)NCCOCCOCCNC(=O)[C@H]4CC(=O)N(C)[C@@H]4c4cccnc4)cc3)CC2)C1 [Example 140, (2S,3S)-N-(2-(2-(2-(4-((1R,4r)-4-(((1R,2S,5R)-5-(Isopropyl(methyl)amino)-2-((S)-2-oxo-3-((6-(trifluoromethyl)quinazolin-4-yl)amino)pyrrolidin-1-yl)cyclohexyl)carbamoyl)cyclohexyl)benzamido)ethoxy)ethoxy)ethyl)-1-methyl-5-oxo-2-(pyridin-3-yl)pyrrolidine-3-carboxamide]",≥ 10000 nM,18.2%,0.398 nM,89.13%,–
"CC(C)N(C)[C@@H]1CC[C@H](N2CC[C@H](Nc3ncnc4ccc(C(F)(F)F)cc34)C2=O)[C@H](NC(=O)CCOCCN2CCC3(CCC(C(=O)NCCNC(=O)[C@H]4CC(=O)N(C)[C@@H]4c4cccnc4)CC3)CC2)C1 [Example 184, 3-(2-(3-(((1R,2S,5R)-5-(isopropyl(methyl)amino)-2-((S)-2-oxo-3-((6-(trifluoromethyl)quinazolin-4-yl)amino)450yridine450ne-1-yl)cyclohexyl)amino)-3-oxopropoxy)ethyl)-N-(2-((2S,3S)-1-methyl-5-oxo-2-(450yridine-3-yl)pyrrolidine-3-carboxamido)ethyl)-3-azaspiro[5.5]undecane-9-carboxamide, 3Formic acid salt]",6390 nM,69.2%,0.251 nM,85.99%,–
